Target: T1, rhGALNS VIMIZIM® (Homo sapiens, UniProt P34059)
T1 construct: purchased BioMarin (VIMIZIM, elosulfase alfa)
T1 sequence (P34059 27-522): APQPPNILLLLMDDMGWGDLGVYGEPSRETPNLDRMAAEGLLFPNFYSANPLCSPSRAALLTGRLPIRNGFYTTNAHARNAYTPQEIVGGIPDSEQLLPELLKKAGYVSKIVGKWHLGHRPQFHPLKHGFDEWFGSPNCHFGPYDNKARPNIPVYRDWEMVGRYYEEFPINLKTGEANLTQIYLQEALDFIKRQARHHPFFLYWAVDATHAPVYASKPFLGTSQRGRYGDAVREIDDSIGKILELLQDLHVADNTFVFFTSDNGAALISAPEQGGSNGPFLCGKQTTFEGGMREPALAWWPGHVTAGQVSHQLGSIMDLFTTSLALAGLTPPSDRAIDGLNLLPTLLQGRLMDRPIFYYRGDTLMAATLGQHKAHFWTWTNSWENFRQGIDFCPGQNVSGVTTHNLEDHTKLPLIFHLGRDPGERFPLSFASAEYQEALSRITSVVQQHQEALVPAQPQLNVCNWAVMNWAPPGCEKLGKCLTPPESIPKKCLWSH
Assay: Stabilization of rhGALNS under thermal denaturation (48 °C, 40 and 60 min)
Type: biochemical
Procedure: The promising IC50 values observed for 1 and 36 prompted us to assess their effects on the commercially available wild-type recombinant GALNS (rhGALNS VIMIZIM®). […] Building on these findings, we investigated the potential stabilizing effect of these compounds on the tertiary structure of GALNS through a thermal denaturation study. rhGALNS was preincubated with varying concentrations of the compounds before being subjected to heating at 48 °C for 40 and 60 min. The relative enzyme activity was expressed as the ratio between the activity measured after thermal denaturation at 48 °C and that obtained under physiological conditions at 37 °C.
Figure 3 Stabilization of rhGALNS VIMIZIM® in the presence of 1 (A) and 36 (B) was evaluated in vitro by using heat inactivation. Relative enzymatic activity after thermal treatment (48 °C) for 40 and 60 min at the indicated inhibitor concentrations (μM) with respect to the corresponding assay at 37 °C (no denaturation). Data for control were obtained as above except that no inhibitor was present. Experiments were performed in triplicate (see Supporting Information). […]
The thermal stability induced by 1 and 36 against rhGALNS VIMIZIM® was determined by measuring the hydrolysis rate with 4-methylumbelliferyl-β-galactoside-6-sulfate.Na (6.66 mM) after denaturation of enzyme at 48 °C for 40 minutes or 60 minutes with or without (Ctrl) different concentrations of compounds. […]
After incubation 20 µL of 4-methylumbelliferyl-β-galactoside-6-sulfate.Na substrate solution in Na-Acetate/acetic acid buffer (0.1 M/0.1 M, pH 4.3) containing 0.1 M NaCl, 0.02% (w/v) NaN3 and 5 mM Pb-acetate was added. […] Fluorescence was measured in a SpectraMax M2 microplate reader (Molecular-Devices) using a 365 nm excitation wavelength and a 435 nm emission wavelength. […]
Figure S57. Activity of rhGALNS VIMIZIM® was determined after incubation for 0 minutes or 40 minutes or 60 minutes at 48 °C with or without (Ctrl) different concentrations of 1 by measuring the hydrolysis rate 4-methylumbelliferyl-β-galactoside-6-sulfate.Na. […]

| SMILES | enzyme activity with respect to the control after thermal denaturation (500 µM compound, both time points (40 and 60 min)) | enzyme activity with respect to the control after thermal denaturation (30 µM compound, 40 min) [fold] | enzyme activity with respect to the control after thermal denaturation (30 µM compound, 60 min) [fold] |
| --- | --- | --- | --- |
| O=C(NC(COCc1cn(CCCCCCN2CC(O)C(O)C2CO)nn1)(COCc1cn(CCCCCCN2CC(O)C(O)C2CO)nn1)COCc1cn(CCCCCCN2CC(O)C(O)C2CO)nn1)c1cc(C(=O)NC(COCc2cn(CCCCCCN3CC(O)C(O)C3CO)nn2)(COCc2cn(CCCCCCN3CC(O)C(O)C3CO)nn2)COCc2cn(CCCCCCN3CC(O)C(O)C3CO)nn2)cc(C(=O)NC(COCc2cn(CCCCCCN3CC(O)C(O)C3CO)nn2)(COCc2cn(CCCCCCN3CC(O)C(O)C3CO)nn2)COCc2cn(CCCCCCN3CC(O)C(O)C3CO)nn2)c1 (stereo not drawn) [Compound 1] | around two-fold |  |  |
| OCC1C(O)C(O)CN1CCCCCCn1cc(COCC(COCc2cn(CCCCCCN3CC(O)C(O)C3CO)nn2)(COCc2cn(CCCCCCN3CC(O)C(O)C3CO)nn2)NCc2cc(CNC(COCc3cn(CCCCCCN4CC(O)C(O)C4CO)nn3)(COCc3cn(CCCCCCN4CC(O)C(O)C4CO)nn3)COCc3cn(CCCCCCN4CC(O)C(O)C4CO)nn3)cc(CNC(COCc3cn(CCCCCCN4CC(O)C(O)C4CO)nn3)(COCc3cn(CCCCCCN4CC(O)C(O)C4CO)nn3)COCc3cn(CCCCCCN4CC(O)C(O)C4CO)nn3)c2)nn1 (stereo not drawn) [Compound 36] |  | 1.3 | 2.4 |

— publication PMC12113998, “Exploring Multivalent Architectures for Binding and Stabilization of N-Acetylgalactosamine 6-Sulfatase” (Molecules, 2025)
